Consider two compounds from ChEMBL document CHEMBL4765464, “Discovery of BMS-986144, a Third-Generation, Pan-Genotype NS3/4A Protease Inhibitor for the Treatment of Hepatitis C Virus Infection” (J Med Chem, 2020).

Data set [1] in a line: Inhibition of recombinant full length NS3/4A R155K mutant protease in Hepatitis C virus subtype 1a replicon infected in human HuH7 cells preincubated for 3 days followed by substrate addition and measured after 2 hrs by renilla luciferase reporter gene assay. Format: cell-based. The following applies: Huh-7. (In general: Replicon systems follow genome replication, usually without infectious particles.)

The nature of data set [2]: Inhibition of recombinant full length NS3/4A protease in Hepatitis C virus subtype 1b replicon infected in human HuH7 cells preincubated for 3 days followed by substrate addition and measured after 2 hrs by renilla luciferase reporter gene assay. The format is cell-based. The note with it: Huh-7.
Data set [3] in a line: Inhibition of recombinant full length NS3/4A D168V mutant protease in Hepatitis C virus subtype 1b replicon infected in human HuH7 cells preincubated for 3 days followed by substrate addition and measured after 2 hrs by renilla luciferase reporter gene assay. The format is cell-based. The note with it: Huh-7.
Data set [4] in a line: Inhibition of recombinant full length NS3/4A protease in Hepatitis C virus subtype 3a replicon infected in human HuH7 cells preincubated for 3 days followed by substrate addition and measured after 2 hrs by renilla luciferase reporter gene assay. The format is cell-based. The note with it: Huh-7.
Data set [5] concerns the target T1, Cytochrome P450 3A4 (Homo sapiens, UniProt P08684). In words: Inhibition of human CYP3A4 in human pooled liver microsomes at 0.002 to 40 uM in presence of midazolam as substrate preincubated in presence of NADPH followed by addition of substrate by LC-MS/MS analysis. The format is ADME. The note with it: TDE = time-dependent effect, dose 0.002-40 µM, time <=30 min. Background: Microsomes from liver hold many membrane-bound enzymes, among them those of drug oxidation.

Data set [6] is described as follows: Metabolic stability in human liver microsomes assessed as half-life incubated for 5 to 45 mins in presence of NADPH by LC-MS analysis. Format: ADME, Microsome. The note with it: time 5-45 min.
The nature of data set [7]: Inhibition of recombinant full length NS3/4A protease in Hepatitis C virus subtype 2a replicon infected in human HuH7 cells preincubated for 3 days followed by substrate addition and measured after 2 hrs by renilla luciferase reporter gene assay. The following applies: Huh-7. The format is cell-based.
In data set [8] the target is T1, Cytochrome P450 3A4. In words: Inhibition of human CYP3A4 in human pooled liver microsomes at 0.002 to 40 uM in presence of testosterone as substrate preincubated in presence of NADPH followed by addition of substrate by LC-MS/MS analysis. Format: ADME. The note with it: TDE = time-dependent effect, dose 0.002-40 µM, time <=30 min.
Data set [9] is described as follows: Half life in rat at 1 mg/kg, iv. Format: ADME, organism-based. The following applies: in vivo.
Data set [10] is described as follows: Ratio of drug concentration in liver to plasma in rat at 5 mg/kg, po measured upto 24 hrs. The following applies: liver and plasma. Format: ADME, organism-based.
Data set [11] in a line: Clearance in rat at 1 mg/kg, iv. The format is ADME, organism-based. The note with it: in vivo.
A short description of data set [12]: Toxicity in rat assessed as increase in heart rate at 30 to 100 mg/kg. Format: organism-based. The note with it: in vivo, dose 30-100 mg/kg.
Data set [13] is described as follows: AUC in cynomolgus monkey at 3 mg/kg, po or 1 mg/kg, iv. The following applies: in vivo. The format is ADME, organism-based, Macaca fascicularis. More on the design: dose 3 mg/kg.
The nature of data set [14]: Half-life in rat at 5 mg/kg, po or 1 mg/kg, iv. The note with it: in vivo. The format is ADME, organism-based.
Data set [15] is described as follows: AUC in dog at 3 mg/kg, po or 1 mg/kg, iv. More on the design: dose 3 mg/kg. The following applies: in vivo. The format is ADME, organism-based, Canis lupus familiaris.
Data set [16] is described as follows: Half-life in dog at 3 mg/kg, po or 1 mg/kg, iv. Format: ADME, organism-based, Canis lupus familiaris. The note with it: in vivo.
Data set [17] is described as follows: AUC in rat at 5 mg/kg, po or 1 mg/kg, iv. The format is ADME, organism-based. More on the design: dose 5 mg/kg. The following applies: in vivo.
Data set [18] can be described thus: Oral bioavailability in dog at 3 mg/kg. The format is ADME, organism-based, Canis lupus familiaris. The note with it: in vivo.
Data set [19] in a line: Oral bioavailability in rat at 5 mg/kg. Format: ADME, organism-based. The following applies: in vivo.
Data set [20] in a line: Drug concentration in rat liver at 5 mg/kg, po measured upto 24 hrs. Format: ADME, organism-based. The following applies: read-out: Ct.
Data set [21] can be described thus: AUC (0 to 24 hrs) in rat at 5 mg/kg, po. The format is ADME, organism-based. More on the design: time < 24 hr, route oral, dose 5 mg/kg. The following applies: in vivo.
A short description of data set [22]: Toxicity in rat assessed as histopathological changes in liver at 100 mg/kg. The note with it: in vivo. Format: organism-based.
Data set [23] can be described thus: Clearance in cynomolgus monkey at 3 mg/kg, po or 1 mg/kg, iv. The format is ADME, organism-based, Macaca fascicularis. The following applies: in vivo.
Data set [24] can be described thus: Drug concentration in rat plasma at 5 mg/kg, po measured upto 24 hrs. The format is ADME, organism-based. The following applies: read-out: Ct.
A short description of data set [25]: Clearance in dog at 3 mg/kg, po or 1 mg/kg, iv. The format is ADME, organism-based, Canis lupus familiaris. The note with it: in vivo.
Data set [26] is described as follows: Clearance in rat at 5 mg/kg, po or 1 mg/kg, iv. Format: ADME, organism-based. The following applies: in vivo.
Data set [27] in a line: Drug concentration in dog plasma at 3 mg/kg, po measured upto 24 hrs. The format is ADME, organism-based, Canis lupus familiaris. The note with it: read-out: Ct.
Data set [28] in a line: Inhibition of recombinant full length NS3/4A protease in Hepatitis C virus subtype 3a infected in human HuH7 cells using Ac-Asp-Glu-Asp (EDANS)-Glu-Glu-Abu-(COO) Ala-Ser-Lys (DABCYL)-NH2 as substrate by FRET assay. The following applies: Huh-7.
Data set [29] is described as follows: Cmax in rat at 5 mg/kg, po. Format: ADME, organism-based. More on the design: route oral, dose 5 mg/kg. The note with it: in vivo.
Data set [30] can be described thus: Drug concentration in cynomolgus monkey plasma at 3 mg/kg, po measured upto 24 hrs. Format: ADME, organism-based, Macaca fascicularis. The following applies: read-out: Ct.
The nature of data set [31]: Oral bioavailability in cynomolgus monkey at 3 mg/kg. The following applies: in vivo. Format: ADME, organism-based, Macaca fascicularis.
Data set [32] can be described thus: Half-life in cynomolgus monkey at 3 mg/kg, po or 1 mg/kg, iv. The format is ADME, organism-based, Macaca fascicularis. The following applies: in vivo.
Data set [33] is described as follows: Inhibition of recombinant full length NS3/4A protease in Hepatitis C virus subtype 1a replicon infected in human HuH7 cells preincubated for 3 days followed by substrate addition and measured after 2 hrs by renilla luciferase reporter gene assay. The note with it: Huh-7. The format is cell-based.
A short description of data set [34]: Toxicity in rat assessed as reduction in blood pressure at 30 to 100 mg/kg. Format: organism-based. The following applies: in vivo, dose 30-100 mg/kg.

T1 sequence (P08684 whole entry): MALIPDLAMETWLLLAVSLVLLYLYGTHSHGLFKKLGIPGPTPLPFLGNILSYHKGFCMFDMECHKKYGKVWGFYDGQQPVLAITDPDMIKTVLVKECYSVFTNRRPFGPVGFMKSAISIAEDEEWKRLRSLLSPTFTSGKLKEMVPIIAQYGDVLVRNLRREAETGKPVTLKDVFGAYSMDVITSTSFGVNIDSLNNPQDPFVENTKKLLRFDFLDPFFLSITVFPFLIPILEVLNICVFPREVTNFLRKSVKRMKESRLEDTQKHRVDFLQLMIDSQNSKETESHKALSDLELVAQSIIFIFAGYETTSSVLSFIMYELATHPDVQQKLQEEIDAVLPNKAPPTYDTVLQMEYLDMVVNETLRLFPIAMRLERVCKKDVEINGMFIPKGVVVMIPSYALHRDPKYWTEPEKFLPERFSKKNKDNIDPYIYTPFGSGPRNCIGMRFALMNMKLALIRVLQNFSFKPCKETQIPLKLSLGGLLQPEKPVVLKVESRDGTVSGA

In the case of `CC[C@@H]1C[C@H](C)CC/C=C\[C@@H]2C[C@@]2(C(=O)NS(=O)(=O)C2(C)CC2)NC(=O)[C@@H]2C[C@@H](Oc3nccc4cc(O)c(F)cc34)CN2C(=O)[C@H]1NC(=O)OC(C)(C)C(F)(F)F`, the EC50 (in general, the concentration giving half of the maximal effect) in [1] stood at 3.9 nM; in [2], 1.3 nM; in [3] it was 9.5 nM; in data set [4], 48 nM; in [7], 1.9 nM. The “inhibition (INH)” value on Cytochrome P450 3A4 [5] and on Cytochrome P450 3A4 [8] was “Tde” in each case. In data set [6], the half-life – broadly, the time in which the quantity being followed falls by half – was determined as 0.617 h.
Turning to `CC[C@@H]1C[C@H](C)CC/C=C\[C@@H]2C[C@@]2(C(=O)NS(=O)(=O)C2(C)CC2)NC(=O)[C@@H]2C[C@@H](Oc3ncc(OC)c4ccc(F)cc34)CN2C(=O)[C@H]1NC(=O)OC(C)(C)C(F)(F)F`, the EC50 in [1] came to 7.6 nM; in [2], 0.6 nM; in data set [3], 9 nM; in data set [4], 15 nM; in data set [33] it was 2.3 nM; in [7], 2 nM. Also, the half-life in data set [9] is 7.9 h; in data set [14], 7.9 h; in data set [16] it was 11.3 h; in data set [6], 0.717 h; in data set [32], 2.8 h. In addition, the Kp (in general, tissue or fluid exposure divided by exposure in the circulation) at 24 h in [10] amounted to 5. The clearance is 1.2 mL/min/kg in data set [11], 5.5 mL/min/kg in [23], 0.6 mL/min/kg in data set [25] and 1.2 mL/min/kg in [26]. Also, the Activity entry was “Toxic” in data set [12], “Non-Toxic” in data set [22] and “Toxic” in data set [34]. Moreover, the results for the AUC in data set [13], in data set [15] and in data set [17] were 2.9 µM·h, 71 µM·h and 37 µM·h, respectively. For the same compound, the bioavailability (in general, the share of a dose that reaches the circulation, judged against a reference dose that is usually intravenous) is 67% in [18], 47% in [19] and 28% in [31]. Also, the concentration at 24 h in data set [20] came out at 2070 nM; in [24] it was 422 nM; in data set [27], 709 nM; in data set [30] it was 13 nM. Moreover, the AUC(0-t) (as a rule, the area under the concentration-time curve up to a stated or last time point) at 24 h in data set [21] worked out at 32.5 µM·h. Moreover, the IC50 (in general, the concentration that inhibits the measured activity by half) in [28] came out at 8.4 nM. For the same compound, the Cmax (usually the peak of the concentration-time curve) in [29] was found to be 3610 nM.
